SMILES strings stand for the structures.

This assay concerns the target T1, GABAA receptor β2 subunit (α1β2γ2 GABAA receptor) (Rattus norvegicus, UniProt P63138).
T1 construct: gene Gabrb2; recombinant α1β2γ2 receptor expressed in Xenopus oocytes; also concatenated α1-β2-α1/γ2-β2; with GABAA receptor α1 and γ2 subunits
The experiment in a line: two-electrode voltage clamp in Xenopus oocytes, potentiation of GABA currents; beta1/beta2 concatemers and point mutants. Type of assay: cell-based.

T1 sequence (P63138 26-474): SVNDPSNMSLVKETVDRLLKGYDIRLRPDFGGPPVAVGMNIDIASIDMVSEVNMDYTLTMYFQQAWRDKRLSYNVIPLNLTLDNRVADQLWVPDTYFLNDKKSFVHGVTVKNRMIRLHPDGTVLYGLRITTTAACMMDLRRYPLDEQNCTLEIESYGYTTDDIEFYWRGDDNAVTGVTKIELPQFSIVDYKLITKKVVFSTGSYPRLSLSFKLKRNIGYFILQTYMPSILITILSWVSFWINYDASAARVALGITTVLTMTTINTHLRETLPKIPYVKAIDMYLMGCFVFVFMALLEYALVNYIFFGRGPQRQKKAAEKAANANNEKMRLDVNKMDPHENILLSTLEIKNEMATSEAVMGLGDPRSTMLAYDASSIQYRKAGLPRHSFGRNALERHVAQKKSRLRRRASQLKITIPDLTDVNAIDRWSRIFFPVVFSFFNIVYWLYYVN
T1 sequence (P62813 28-455 partner): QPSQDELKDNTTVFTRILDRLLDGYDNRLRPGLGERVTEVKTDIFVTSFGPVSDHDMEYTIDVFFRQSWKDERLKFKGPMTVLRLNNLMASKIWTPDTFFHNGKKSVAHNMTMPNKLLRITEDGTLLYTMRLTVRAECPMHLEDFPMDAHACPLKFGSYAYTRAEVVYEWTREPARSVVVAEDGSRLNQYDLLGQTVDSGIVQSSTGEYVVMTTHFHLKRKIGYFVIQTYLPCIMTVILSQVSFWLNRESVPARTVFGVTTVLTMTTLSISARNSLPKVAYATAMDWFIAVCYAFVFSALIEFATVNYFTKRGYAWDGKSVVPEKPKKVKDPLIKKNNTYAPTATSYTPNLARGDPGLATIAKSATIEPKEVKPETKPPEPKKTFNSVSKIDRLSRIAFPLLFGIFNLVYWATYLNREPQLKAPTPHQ
T1 sequence (P18508 39-466 partner): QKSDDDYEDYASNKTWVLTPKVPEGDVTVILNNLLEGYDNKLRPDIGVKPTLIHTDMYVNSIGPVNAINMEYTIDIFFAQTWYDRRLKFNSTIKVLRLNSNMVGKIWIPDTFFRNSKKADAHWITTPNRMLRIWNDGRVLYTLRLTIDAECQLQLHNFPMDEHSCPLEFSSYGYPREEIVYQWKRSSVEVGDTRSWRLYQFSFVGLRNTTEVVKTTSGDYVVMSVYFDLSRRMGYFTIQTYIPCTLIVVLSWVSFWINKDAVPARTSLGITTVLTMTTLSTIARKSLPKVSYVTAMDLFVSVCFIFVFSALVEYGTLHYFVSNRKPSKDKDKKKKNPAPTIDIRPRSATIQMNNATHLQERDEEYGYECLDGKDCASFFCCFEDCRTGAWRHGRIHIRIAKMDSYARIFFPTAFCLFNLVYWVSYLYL

On to `CCCCC/C=C\C/C=C\C/C=C\C/C=C\CCCC(=O)NCC(=O)O` [NA-glycine], for which the EC50 lay within 1 to 10 µM.

The values are drawn from PMC3775635, “Do N-arachidonyl-glycine (NA-glycine) and 2-arachidonoyl glycerol (2-AG) share mode of action and the binding site on the β2 subunit of GABAA receptors?” (PeerJ, 2013).
